Measured values: patent US10112926B2 (priority 2014, dated 2018)
Where a name gives a salt, the structure may show the parent alone.

molecular target: Vps34 (Homo sapiens (Human), UniProt Q8NEB9); conditions: read-out: Assay C VPS34 IC50
Sequence (Q8NEB9 whole entry): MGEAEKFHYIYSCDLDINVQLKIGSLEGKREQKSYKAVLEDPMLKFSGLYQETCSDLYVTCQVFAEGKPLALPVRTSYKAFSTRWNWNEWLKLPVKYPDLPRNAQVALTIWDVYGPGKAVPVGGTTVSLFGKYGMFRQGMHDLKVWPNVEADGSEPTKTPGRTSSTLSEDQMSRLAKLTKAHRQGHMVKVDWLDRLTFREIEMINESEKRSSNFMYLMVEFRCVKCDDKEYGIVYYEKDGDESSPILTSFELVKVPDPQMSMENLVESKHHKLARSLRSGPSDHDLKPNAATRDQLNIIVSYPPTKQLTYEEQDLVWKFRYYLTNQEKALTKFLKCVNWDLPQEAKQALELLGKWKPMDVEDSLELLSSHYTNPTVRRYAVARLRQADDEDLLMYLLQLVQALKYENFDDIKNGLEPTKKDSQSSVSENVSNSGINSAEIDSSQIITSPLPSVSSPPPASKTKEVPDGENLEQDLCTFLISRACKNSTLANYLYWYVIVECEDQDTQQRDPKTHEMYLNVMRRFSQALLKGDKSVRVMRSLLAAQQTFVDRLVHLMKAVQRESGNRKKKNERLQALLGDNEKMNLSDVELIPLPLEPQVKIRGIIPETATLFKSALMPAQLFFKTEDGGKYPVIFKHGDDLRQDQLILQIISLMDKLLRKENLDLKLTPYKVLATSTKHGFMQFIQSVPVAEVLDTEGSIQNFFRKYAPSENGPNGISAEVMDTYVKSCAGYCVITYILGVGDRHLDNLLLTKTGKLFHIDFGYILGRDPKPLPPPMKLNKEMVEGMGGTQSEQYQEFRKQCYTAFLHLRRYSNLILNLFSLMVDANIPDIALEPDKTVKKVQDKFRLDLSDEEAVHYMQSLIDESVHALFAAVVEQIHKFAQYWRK

| Structure (SMILES) | IC50 [µM] |
| --- | --- |
| Cc1ncc(-c2cc(-c3cc(S(=O)(=O)NCC(C)(C)O)ccc3C)cnc2N)o1 [Example 6, 3-(6-Amino-5-(2-methyloxazol-5-yl)pyridin-3-yl)-N-(2-hydroxy-2-methylpropyl)-4-methylbenzenesulfonamide] | > 10 |
| Cc1cc(-c2cc(-c3cc(S(=O)(=O)N[C@H]4CC[C@H](N)CC4)ccc3C)cnc2N)on1 [Example 19.3, 3-(6-amino-5-(3-methylisoxazol-5-yl)pyridin-3-yl)-N-(trans-4-aminocyclohexyl)-4-methylbenzenesulfon-amide acetic acid salt] | > 10 |
| Cc1cc(-c2cc(-c3cc(S(=O)(=O)N[C@@H]4CNC[C@H]4O)ccc3C)cnc2N)on1 [Example 19.4, 3-(6-amino-5-(3-methylisoxazol-5-yl)pyridin-3-yl)-N-(trans-4-hydroxypyrrolidin-3-yl)-4-methylbenzenesulfon-amide acetic acid salt] | > 10 |
| Cc1cc(-c2cc(-c3cc(S(=O)(=O)N4CCOC[C@@H]4C)ccc3C)cnc2N)on1 [Example 19.5, (S)-5-(2-methyl-5-((3-methylmorpholino)sulfon-yl)phenyl)-3-(3-methylisoxazol-5-yl)pyridin-2-amine trifluoroacetic acid salt] | > 10 |
| Cc1cc(-c2cc(-c3cc(S(=O)(=O)N4CCOC[C@H]4C)ccc3C)cnc2N)on1 [Example 19.6, (R)-5-(2-methyl-5-((3-methylmorpholino)sulfon-yl)phenyl)-3-(3-methylisoxazol-5-yl)pyridin-2-amine trifluoroacetic acid salt] | > 10 |
| Cc1cc(-c2cc(-c3cc(S(=O)(=O)NCC4(O)CC4)ccc3C)cnc2N)on1 [Example 19.10, 3-(6-amino-5-(3-methylisoxazol-5-yl)pyridin-3-yl)-N-((1-hydroxycyclopropyl)methyl)-4-methylbenzenesulfon-amide trifluoroacetic acid salt] | > 10 |
| Cc1cc(-c2cc(-c3cc(S(=O)(=O)N4CCCC(C)(O)CC4)ccc3C)cnc2N)on1 (stereo not drawn) [Example 19.21, 1-((3-(6-amino-5-(3-methylisoxazol-5-yl)pyridin-3-yl)-4-methylphenyl)sulfonyl)-4-methylazepan-4-ol trifluoroacetic acid salt] | > 10 |
| Cc1ccc(S(=O)(=O)NOCC(C)(C)O)cc1-c1cnc(N)c(-c2cnn(CC(F)(F)F)c2)c1 [Example 34, 3-(6-Amino-5-(1-(2,2,2-trifluoroethyl)-1H-pyrazol-4-yl)pyridin-3-yl)-N-(2-hydroxy-2-methylpropoxy)-4-methylbenzenesulfonamide hydrochloride] | > 10 |
| Cc1cc(-c2cc(-c3cc(S(=O)(=O)NC4CCOCC4)ccc3C)cnc2N)on1 [Example 37.8, 3-(6-Amino-5-(3-methylisoxazol-5-yl)pyridin-3-yl)-4-methyl-N-(tetrahydro-2H-pyran-4-yl)benzenesulfonamide] | > 10 |
| Cc1cc(-c2cc(-c3cc(S(=O)(=O)NCC4(O)CCCCC4)ccc3C)cnc2N)on1 [Example 37.9] | > 10 |
| Cc1cc(-c2cc(-c3cc(S(=O)(=O)NCCC4(O)CCCC4)ccc3C)cnc2N)on1 [Example 37.16, 3-(6-Amino-5-(3-methylisoxazol-5-yl)pyridin-3-yl)-N-(2-(1-hydroxycyclopentyl)ethyl)-4-methylbenzenesulfonamide] | > 10 |
| Cc1cc(-c2cc(-c3cc(S(=O)(=O)NCC4(CO)CCCC4)ccc3C)cnc2N)on1 [Example 37.23, 3-(6-Amino-5-(3-methylisoxazol-5-yl)pyridin-3-yl)-N-((1-(hydroxymethyl)cyclopentyl)methyl)-4-methylbenzenesulfonamide] | > 10 |
| Cc1cc(-c2cc(-c3cc(S(=O)(=O)N4CC[C@@H](O)C4)ccc3C)cnc2N)on1 [Example 37.24, (R)-1-((3-(6-Amino-5-(3-methylisoxazol-5-yl)pyridin-3-yl)-4-methylphenyl)sulfonyl)pyrrolidin-3-ol] | > 10 |
| CCN1CCC[C@@H]1CNS(=O)(=O)c1ccc(C)c(-c2cnc(N)c(-c3cc(C)no3)c2)c1 [Example 37.27, (R)-3-(6-Amino-5-(3-methylisoxazol-5-yl)pyridin-3-yl)-N-((1-ethylpyrrolidin-2-yl)methyl)-4-methylbenzenesulfonamide] | > 10 |
| Cc1cc(-c2cc(-c3cc(S(=O)(=O)NCCC4(O)CCCCC4)ccc3C)cnc2N)on1 [Example 37.30, 3-(6-Amino-5-(3-methylisoxazol-5-yl)pyridin-3-yl)-N-(2-(1-hydroxycyclohexyl)ethyl)-4-methylbenzenesulfonamide] | > 10 |
| CCN1CCC[C@H]1CNS(=O)(=O)c1ccc(C)c(-c2cnc(N)c(-c3cc(C)no3)c2)c1 [Example 37.33, (S)-3-(6-Amino-5-(3-methylisoxazol-5-yl)pyridin-3-yl)-N-((1-ethylpyrrolidin-2-yl)methyl)-4-methylbenzenesulfonamide] | > 10 |
| Cc1cc(-c2cc(-c3cc(S(=O)(=O)NCC4(CO)COC4)ccc3C)cnc2N)on1 [Example 50, 3-(6-Amino-5-(3-methylisoxazol-5-yl)pyridin-3-yl)-N-((3-(hydroxymethyl)oxetan-3-yl)methyl)-4-methylbenzenesulfonamide] | > 10 |
| Cc1cc(-c2cc(-c3cc(S(=O)(=O)NCC4(O)CCCC4)ccc3C)cnc2N)on1 [Example 53, 3-(6-Amino-5-(3-methylisoxazol-5-yl)pyridin-3-yl)-N-((1-hydroxycyclopentyl)methyl)-4-methylbenzenesulfonamide] | > 10 |
| Cc1cc(-c2cc(-c3cc(S(=O)(=O)NCC4(O)CCOCC4)ccc3C)cnc2N)on1 [Example 54, 3-(6-Amino-5-(3-methylisoxazol-5-yl)pyridin-3-yl)-N-((4-hydroxytetrahydro-2H-pyran-4-yl)methyl)-4-methylbenzenesulfonamide] | > 10 |
| Cc1ccc(S(=O)(=O)NCC(C)(C)O)cc1-c1cnc(N)c(-c2cnn(C)c2C)c1 [Example 61, 3-(6-Amino-5-(1,5-dimethyl-1H-pyrazol-4-yl)pyridin-3-yl)-N-(2-hydroxy-2-methylpropyl)-4-methylbenzenesulfonamide] | > 10 |
| Cc1ncc(-c2cc(-c3cc(S(=O)(=O)NCC4(CO)COC4)ccc3C)cnc2N)o1 [Example 67, 3-(6-Amino-5-(2-methyloxazol-5-yl)pyridin-3-yl)-N-((3-(hydroxymethyl)oxetan-3-yl)methyl)-4-methylbenzenesulfonamide] | 9.5 |
| Cc1ncc(-c2cc(-c3cc(S(=O)(=O)NCC4(CO)COC4)ccc3C)cnc2N)s1 [Example 68, 3-(6-Amino-5-(2-methylthiazol-5-yl)pyridin-3-yl)-N-((3-(hydroxymethyl)oxetan-3-yl)methyl)-4-methylbenzenesulfonamide] | 8.4 |
| Cc1noc(-c2cc(-c3cc(S(=O)(=O)NC[C@H]4CCOC4)ccc3C)cnc2N)n1 [Example 86, (R)-3-(6-Amino-5-(3-methyl-1,2,4-oxadiazol-5-yl)pyridin-3-yl)-4-methyl-N-((tetrahydrofuran-3-yl)methyl)benzenesulfonamide] | > 10 |
| Cc1noc(-c2cc(-c3cc(S(=O)(=O)NCC(C)(C)O)c(Cl)cc3C)cnc2N)n1 [Example 89, 5-(6-Amino-5-(3-methyl-1,2,4-oxadiazol-5-yl)pyridin-3-yl)-2-chloro-N-(2-hydroxy-2-methylpropyl)-4-methylbenzenesulfonamide] | > 10 |
| Cc1cnc(-c2cc(-c3cc(S(=O)(=O)NCC(C)(C)O)ccc3C)cnc2N)s1 [Example 90, 3-(6-Amino-5-(5-methylthiazol-2-yl)pyridin-3-yl)-N-(2-hydroxy-2-methylpropyl)-4-methylbenzenesulfonamide] | > 10 |
| Cc1ccc(S(=O)(=O)NCC(C)(C)O)cc1-c1cnc(N)c(-c2cnco2)c1 [Example 94a, 3-(6-amino-5-(oxazol-5-yl)pyridin-3-yl)-N-(2-hydroxy-2-methylpropyl)-4-methylbenzenesulfonamide] | > 10 |
| Cc1ncc(-c2cc(-c3cc(S(=O)(=O)NCC4CC(O)C4)ccc3C)cnc2N)o1 (stereo not drawn) [Example 104.1, 3-(6-amino-5-(2-methyloxazol-5-yl)pyridin-3-yl)-N-((3-hydroxycyclobutyl)methyl)-4-methylbenzenesulfon-amide] | 1.1 |
| Cc1ncc(-c2cc(-c3cc(S(=O)(=O)NCCCO)ccc3C)cnc2N)o1 [Example 104.6, 3-(6-amino-5-(2-methyloxazol-5-yl)pyridin-3-yl)-N-(3-hydroxypropyl)-4-methylbenzenesulfon-amide] | 1.9 |
| Cc1ncc(-c2cc(-c3cc(S(=O)(=O)NCC(F)F)ccc3C)cnc2N)o1 [Example 104.10, 3-(6-amino-5-(2-methyloxazol-5-yl)pyridin-3-yl)-N-(2,2-difluoroethyl)-4-methylbenzenesulfon-amide] | 1.5 |

molecular target: PI 4-kinase beta (Homo sapiens (Human), UniProt Q9UBF8); conditions: read-out: Assay D PI4Kβ IC50
Sequence (Q9UBF8 whole entry): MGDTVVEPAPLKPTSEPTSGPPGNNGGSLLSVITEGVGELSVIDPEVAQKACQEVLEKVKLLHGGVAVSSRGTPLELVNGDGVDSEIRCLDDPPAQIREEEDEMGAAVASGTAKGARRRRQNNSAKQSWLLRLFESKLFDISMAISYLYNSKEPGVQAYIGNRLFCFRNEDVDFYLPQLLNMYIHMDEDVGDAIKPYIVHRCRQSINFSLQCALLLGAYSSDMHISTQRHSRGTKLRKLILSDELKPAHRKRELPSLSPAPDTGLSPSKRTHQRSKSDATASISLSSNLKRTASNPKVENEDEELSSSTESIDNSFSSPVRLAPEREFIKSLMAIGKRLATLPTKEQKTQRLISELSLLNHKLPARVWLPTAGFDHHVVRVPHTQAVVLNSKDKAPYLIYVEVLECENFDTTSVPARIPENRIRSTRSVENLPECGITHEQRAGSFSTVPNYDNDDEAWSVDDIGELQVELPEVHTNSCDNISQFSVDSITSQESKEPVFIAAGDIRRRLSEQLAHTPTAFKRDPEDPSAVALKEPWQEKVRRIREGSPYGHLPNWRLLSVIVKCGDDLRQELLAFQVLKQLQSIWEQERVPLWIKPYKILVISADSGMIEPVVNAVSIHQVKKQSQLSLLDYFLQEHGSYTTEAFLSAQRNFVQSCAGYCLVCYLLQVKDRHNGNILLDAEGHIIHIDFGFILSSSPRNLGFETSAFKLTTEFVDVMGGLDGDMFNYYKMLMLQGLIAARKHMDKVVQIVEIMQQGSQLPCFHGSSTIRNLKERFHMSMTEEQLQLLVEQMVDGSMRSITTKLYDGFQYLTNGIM

| Structure (SMILES) | IC50 [µM] |
| --- | --- |
| Cc1cc(-c2cc(-c3cc(S(=O)(=O)N4CC5(CCOC5)C4)ccc3C)cnc2N)on1 [Example 19.1, 5-(5-(6-oxa-2-azaspiro[3.4]octan-2-ylsulfonyl)-2-methylphenyl)-3-(3-methylisoxazol-5-yl)pyridin-2-amine trifluoroacetic acid salt] | 4 |
| Cc1cc(-c2cc(-c3cc(S(=O)(=O)N4CCCC4(C)C)ccc3C)cnc2N)on1 [Example 19.9, 5-(5-((2,2-dimethylpyrrolidin-1-yl)sulfonyl)-2-methylphenyl)-3-(3-methylisoxazol-5-yl)pyridin-2-amine trifluoroacetic acid salt] | 1.9 |
| Cc1cc(-c2cc(-c3cc(S(=O)(=O)N4CCC[C@H]4CO)ccc3C)cnc2N)on1 [Example 19.15, (S)-(1-((3-(6-amino-5-(3-methylisoxazol-5-yl)pyridin-3-yl)-4-methylphenyl)sulfonyl)pyrrolidin-2-yl)methanol trifluoroacetic acid salt] | 0.9 |
| Cc1cc(-c2cc(-c3cc(S(=O)(=O)N4CCNC(=O)C4)ccc3C)cnc2N)on1 [Example 19.17, 4-((3-(6-amino-5-(3-methylisoxazol-5-yl)pyridin-3-yl)-4-methylphenyl)sulfonyl) piperazin-2-one trifluoroacetic acid salt] | 1.4 |
